US6872818B2, “Ammonium sulfate for neutralization of inhibitory effects” (QIAGEN GmbH, priority 2001, dated 2005)

Experiments:
cDNA synthesis = experiment: Reverse transcription / PCR in presence of SYBRGREEN dye; type: biochemical; conditions: final concentration of 100×
Procedure: Reverse transcription reactions containing 0×, 0.001×, 0.01×, 0.1×, 1×, 10× and 100× SYBRGREEN® dye were performed. In order to quantify the generated cDNA after RT-reaction, 2 μl of the RT reaction was transferred to a 20 μl PCR mixture. PCR products were analyzed by gel-electrophoresis.

RT-PCR reaction = conditions: final concentration of 1 mM
Procedure: In order to quantify the generated cDNA after RT reactions, 2 μl of each RT reaction mixture was transferred to a 20 μl PCR mixture.

Compound | cDNA synthesis (cDNA synthesis) | reduction in signals produced from an RT-PCR reaction (RT-PCR reaction)
CCCN(CCCN(C)C)c1cc(/C=C2/Sc3ccccc3N2C)c2ccccc2[n+]1-c1ccccc1 [SYBRGREEN® dye] | total loss of cDNA synthesis | 
NCCCNCCCCNCCCN [spermine] |  | up to 4 fold
